Experimental data from patent US10336822B2, “Early marker of proteinuria in patients treated with an anti-VEGF treatment” (Mayo Foundation for Medical Education and Research, priority 2009, dated 2019).
“And” between values parts separate entries of the source, which are not always exact repeats. Identical values can stand only once.

Key:
[1] = Renal function (creatinine, GFR) in patients on anti-VEGF therapy; conditions: for GFR: individual cancer patients on anti-VEGF therapy, Table 1
[2] = Proteinuria in patients on anti-VEGF therapy; assay type: in vivo, human
Experimental: The following was performed to determine whether podocyturia is present in patients who, while undergoing anti-VEGF therapy, develop proteinuria (Table 1). In addition, urinary podocyte excretion was compared among patients on anti-VEGF therapy with proteinuria ranging from 101 to 9720 mg/d (Table 1).

urinary podocytes = experiment: Podocyturia assay: urinary cells stained for podocin immunoreactivity; assay type: in vivo, human; conditions: for Cells/HPF (urinary podocytes): 400 × high power field, individual cancer patients on anti-VEGF therapy, Table 1
Experimental: A random urine sample (25-50 mL each) was centrifuged for 8 minutes at 700 g at room temperature. The pellets were rinsed twice with […]. Next, the pellets were resuspended in Dulbecco's modified eagle's medium (DMEM) F-12 medium with 10% fetal bovine serum that was supplemented with antibiotics for the prevention of bacterial contamination. A one-milliliter aliquot was plated on a collagen-coated tissue culture slide, which was followed by overnight incubation at 37° C. in 5% CO2. The next day, the media were removed, followed by two phosphate-buffered saline solution washes. The slide was fixed with 1 mL of ice cold methanol for 10 minutes at −20° C. The slide was incubated with antibodies to podocin (dilution, 1:200). After being washed with phosphate-buffered saline solution, a secondary fluorescein isothiocyanate-labeled antibody was added at a dilution of 1:40 for 30 minutes. The sediment was counterstained with Hoechst nuclear stain to facilitate differentiation of whole cells from cell fragments. Coverslips were mounted with Vectashield (Vector Labs, Burlington, Calif.), and the slides were viewed with a fluorescence microscope (Leica, Germany). Nucleated, positive-staining cells were considered to be podocytes. A renal pathologist, who was blinded to the clinical diagnosis and laboratory findings, evaluated each sample to determine the number of cells that were present and the percentage of cells that were stained for podocin.

[3] = system: renal cell carcinoma, clear cell type; experiment: Clinical course of a renal cell carcinoma patient on sunitinib therapy; assay type: in vivo, human; conditions: person, four months into therapy
Excerpt: They subsequently underwent a right radical nephrectomy and retroperitoneal lymphadenectomy.

| Compound | GFR [1] | Proteinuria ([2]; individual cancer patients on anti-VEGF therapy, Table 1) | Cells/HPF (urinary podocytes) (urinary podocytes) | kidney function, as per creatinine measurements ([1]; after the regimen was changed and the dose was decreased) | creatinine ([1]; person, after seven months of therapy) | peak creatinine ([1]; person, four months into therapy) | Proteinuria ([2]; human, in vivo) | predicted 24 hour protein ([2]; human, in vivo) | protein in 24 hours ([2]; human, in vivo) | presence of urinary podocytes (urinary podocytes; person, after seven months of therapy, FIG. 1) | Additional side effects [3] | Proteinuria (dipstick) ([2]; human, in vivo) |
| --- | --- | --- | --- | --- | --- | --- | --- | --- | --- | --- | --- | --- |
| CNC(=O)c1cc(Oc2ccc(NC(=O)Nc3ccc(Cl)c(C(F)(F)F)c3)cc2)ccn1 [S/nib, sorafenib] | 70 and 39 | 9720 mg/day and 101 mg/day | >9 Cells/HPF and 1 Cells/HPF | – | – | – | – | – | – | – | – | – |
| CCN(CC)CCNC(=O)c1c(C)[nH]c(/C=C2\C(=O)Nc3ccc(F)cc32)c1C [Sunitinib] | 43 | – | >3 Cells/HPF | improved | 1.3 | 1.5 | 2112 mg/day | 931 mg | 467 mg | presence of urinary podocytes was confirmed | hypertension, hand and foot syndrome, and drug-induced hypothyroidism | – |
| bevacizumab | – | – | – | – | – | – | – | – | – | – | – | 1 + dipstick |
